Experimental data: patent publication US20250084095A1, “Aminopyrimidine Derivatives as Cyclin-Dependent Kinase Inhibitors” (Accutar Biotechnology Inc., priority 2023, published 2025)
pIC50: −log10 of the molar value.

These compounds were tested on Phospho-Rb (Ser807/811) in SW1573-CDK6 KO cells (assay: Phospho-Rb expression inhibition in SW1573-CDK6 KO cells quantified by in cell Western). Details: Homo sapiens, 24 hours, read-out: SW1573 CDK6 KO pRb IC50.
Assay type: cell-based
Description: Parental SW1573 cells were obtained from the American Type Culture Collection (ATCC). CDK4 or CDK6 gene in […] cells was knocked out using the CRISPR-Cas9 technology. First, gRNA complex of CDK4 or CDK6 was prepared with Alt-R CRISPR-Cas9 tracrRNA and crRNA CDK4 (5′-[…]-3′ (SEQ ID NO: 4)) or CDK6 (5′-[…]-3′ (SEQ ID NO. 5)) (IDT-Integrated DNA Technologies), and then ribonucleoprotein (RNP) complex of CDK4 or CDK6 was prepared with respective gRNA complex and Alt-R S.p. Cas9 Nuclease V3 (IDT-Integrated DNA Technologies). Next, 5×10^4/10 μL SWJ1573 cells were electroporated with the CDK4 or CDK6 RNP complex and Alt-R Cas9 Electroporation Enhancer using Neon Transfection System (Thermo Fisher). Cells were then plated in a 96-well plate to select single clones for validation of CDK4 or CDK6 knockout by western blot analysis.
MCF7 cells were obtained from American Type Culture Collection (ATCC, HTB-22). SW1573-CDK6 KO and SW1573-CDK4 KO cells were generated by the CRISPR-Cas9 technology. All cells were plated in 96-well plates (VWR #10062-900, or Corning #3904) in 90 uL culture medium at a density of 20,000 cells/well in the respective growth medium containing 10% FBS and 1% Penicillin Streptomycin, and then incubated at 37° C. overnight. The following day, the test compound was administered to the cells by using 1000× compound stock solution prepared in DMSO at various concentrations. 1000× compound stock solution was first diluted in culturing medium to 10×, then 10 uL compound medium was added to each well in the cell plates. After administration of the compound, the cells were then incubated at 37° C. for 24 hours. Upon completion, the cells were washed with PBS briefly. 150 uL/well of 4% formaldehyde was added and the plates were incubated at room temperature for 20 mins. The cells were washed with PBS briefly, and permeabilized with 150 uL/well of ice cold 100% methanol for 10 mins. The cells were washed with PBS briefly and blocked with 100 uL/well LI-COR blocking buffer for 1 hr at room temperature with gentle shaking. The cells were incubated overnight at 4° C. with 50 uL primary antibody rabbit anti-Phospho-Rb (Ser807/811) (1: 500, Cell Signaling, #8516) and anti-Rb (1:200, Santa Cruz, sc-73598) diluted in Intercept Blocking Buffer (LI-COR, #927-60001) containing 0.1% Tween 20. The next day, the cells were washed with 200 uL PBS containing 0.1% Tween 20, 5×5 mins at room temperature with gentle shaking, and incubated with 50 uL secondary antibody, IRDye® 800CW Goat anti-Rabbit IgG (1:1000, LI-COR, #926-32211) and IRDye®680RD Goat anti-Mouse IgG (1:1000, LI-COR, #926-68070), in LI-COR blocking buffer with 0.2% Tween 20 for 1 hr at room temperature with gentle shaking. The cells were washed with 200 uL PBS containing 0.1% Tween 20, 5×5 mins at room temperature with gentle shaking. The cells were washed with PBS for 5 mins. 100 uL fresh PBS was added to each well and the plates were imaged on a LI-COR Odyssey CLX plate reader.

pIC50	SMILES
≥ 7.40	Cc1c(CN2CC[C@H](F)C2)n(C(C)C)c2cc(-c3nc(N[C@@H]4C[C@H]5CO[C@H](O5)[C@H]4O)ncc3F)ccc2c1=O [Compound 293, 7-(5-fluoro-2-(((1S,3R,4S,5R)-4-hydroxy-6,8-dioxabicyclo[3.2.1]octan-3-yl)amino)pyrimidin-4-yl)-2-(((S)-3-fluoropyrrolidin-1-yl)methyl)-1-isopropyl-3-methylquinolin-4(1H)-one]
6.82 to 7.40	CC(C)n1c(CN2[C@@H](C)COC[C@@H]2C)c(C(F)F)c(=O)c2ccc(-c3nc(N[C@@H]4C[C@H]5CO[C@H](O5)[C@H]4O)ncc3Cl)cc21 [Compound 204, 7-(5-chloro-2-(((1S,3R,4S,5R)-4-hydroxy-6,8-dioxabicyclo[3.2.1]octan-3-yl)amino)pyrimidin-4-yl)-3-(difluoromethyl)-2-(((3S,5S)-3,5-dimethylmorpholino)methyl)-1-isopropylquinolin-4(1H)-one]
6.82 to 7.40	Cc1c(CN2CCC2)n(C(C)C)c2cc(-c3nc(N[C@@H]4C[C@H]5CO[C@H](O5)[C@H]4O)ncc3F)ccc2c1=O [Compound 196, 2-(azetidin-1-ylmethyl)-7-(5-fluoro-2-(((1S,3R,4S,5R)-4-hydroxy-6,8-dioxabicyclo[3.2.1]octan-3-yl)amino)pyrimidin-4-yl)-1-isopropyl-3-methylquinolin-4(1H)-one]
6.82 to 7.40	Cc1c(-c2nc(N[C@@H]3C[C@H]4CO[C@H](O4)[C@H]3O)ncc2Cl)sc2c(Cl)c(C(C)(C)O)cnc12 [Compound 275, (1S,3R,4S,5R)-3-((5-chloro-4-(7-chloro-6-(2-hydroxypropan-2-yl)-3-methylthieno[3,2-b]pyridin-2-yl)pyrimidin-2-yl)amino)-6,8-dioxabicyclo[3.2.1]octan-4-ol]
≥ 7.40	CC(C)(O)c1cnc2c(F)cc(-c3nc(N[C@@H]4C[C@H]5CO[C@H](O5)[C@H]4O)ncc3F)cc2c1Cl [Compound 255, (1S,3R,4S,5R)-3-((4-(4-chloro-8-fluoro-3-(2-hydroxypropan-2-yl)quinolin-6-yl)-5-fluoropyrimidin-2-yl)amino)-6,8-dioxabicyclo[3.2.1]octan-4-ol]
≥ 7.40	Cc1c(CN(C)C)n(C(C)C)c2cc(-c3nc(N[C@@H]4C[C@H]5CO[C@H](O5)[C@H]4O)ncc3F)ccc2c1=O [Compound 195, 2-((dimethylamino)methyl)-7-(5-fluoro-2-(((1S,3R,4S,5R)-4-hydroxy-6,8-dioxabicyclo [3.2.1]octan-3-yl)amino)pyrimidin-4-yl)-1-isopropyl-3-methylquinolin-4(1H)-one]
6.82 to 7.40	Cc1c(CN2CC(F)C2)n(C(C)C)c2cc(-c3nc(N[C@@H]4C[C@H]5CO[C@H](O5)[C@H]4O)ncc3F)ccc2c1=O [Compound 197, 7-(5-fluoro-2-(((1S,3R,4S,5R)-4-hydroxy-6,8-dioxabicyclo[3.2.1]octan-3-yl)amino)pyrimidin-4-yl)-2-((3-fluoroazetidin-1-yl)methyl)-1-isopropyl-3-methylquinolin-4(1H)-one]
6.82 to 7.40	COC(=O)N1CC[C@@H](c2nc3c(F)cc(-c4nc(N[C@@H]5C[C@H]6CO[C@H](O6)[C@H]5O)ncc4F)cc3n2C(C)C)C1 [Compound 265, methyl (R)-3-(4-fluoro-6-(5-fluoro-2-(((1S,3R,4S,5R)-4-hydroxy-6,8-dioxabicyclo[3.2.1]octan-3-yl)amino)pyrimidin-4-yl)-1-isopropyl-1H-benzo[d]imidazol-2-yl)pyrrolidine-1-carboxylate]
≥ 7.40	CCn1cc(C(C)C)c2sc(-c3nc(N[C@@H]4C[C@H]5CO[C@H](O5)[C@H]4O)ncc3Cl)c(C)c2c1=O [Compound 230, 5-ethyl-2-(5-chloro-2-(((1S,3R,4S,5R)-4-hydroxy-6,8-dioxabicyclo[3.2.1]octan-3-yl)amino)pyrimidin-4-yl)-7-isopropyl-3-methylthieno[3,2-c]pyridin-4(5H)-one]
≥ 7.40	Cc1c(CN2[C@@H](C)COC[C@@H]2C)n(C(C)C)c2cc(-c3nc(N[C@@H]4C[C@H]5CO[C@H](O5)[C@H]4O)ncc3F)ccc2c1=O [Compound 199, 2-(((3S,5S)-3,5-dimethylmorpholino)methyl)-7-(5-fluoro-2-(((1S,3R,4S,5R)-4-hydroxy-6,8-dioxabicyclo[3.2.1]octan-3-yl)amino)pyrimidin-4-yl)-1-isopropyl-3-methylquinolin-4(1H)-one]
≥ 7.40	Cc1c(C(C)(C)O)cnc2c(F)cc(-c3nc(N[C@@H]4C[C@H]5CO[C@H](O5)[C@H]4O)ncc3F)cc12 [Compound 256, (1S,3R,4S,5R)-3-((5-fluoro-4-(8-fluoro-3-(2-hydroxypropan-2-yl)-4-methylquinolin-6-yl)pyrimidin-2-yl)amino)-6,8-dioxabicyclo[3.2.1]octan-4-ol]
